Blank lines part the entries; values can stand above or below the compound they belong to.
Legend:
[1] = biological target: T1, Serine/threonine-protein kinase ULK2 (Homo sapiens) (UniProt Q8IYT8); assay: Selectivity interaction (LanthaScreen Eu Kinase Binding Assay) EUB0001632a ULK2; settings: at 10 µM
T1 sequence (whole entry): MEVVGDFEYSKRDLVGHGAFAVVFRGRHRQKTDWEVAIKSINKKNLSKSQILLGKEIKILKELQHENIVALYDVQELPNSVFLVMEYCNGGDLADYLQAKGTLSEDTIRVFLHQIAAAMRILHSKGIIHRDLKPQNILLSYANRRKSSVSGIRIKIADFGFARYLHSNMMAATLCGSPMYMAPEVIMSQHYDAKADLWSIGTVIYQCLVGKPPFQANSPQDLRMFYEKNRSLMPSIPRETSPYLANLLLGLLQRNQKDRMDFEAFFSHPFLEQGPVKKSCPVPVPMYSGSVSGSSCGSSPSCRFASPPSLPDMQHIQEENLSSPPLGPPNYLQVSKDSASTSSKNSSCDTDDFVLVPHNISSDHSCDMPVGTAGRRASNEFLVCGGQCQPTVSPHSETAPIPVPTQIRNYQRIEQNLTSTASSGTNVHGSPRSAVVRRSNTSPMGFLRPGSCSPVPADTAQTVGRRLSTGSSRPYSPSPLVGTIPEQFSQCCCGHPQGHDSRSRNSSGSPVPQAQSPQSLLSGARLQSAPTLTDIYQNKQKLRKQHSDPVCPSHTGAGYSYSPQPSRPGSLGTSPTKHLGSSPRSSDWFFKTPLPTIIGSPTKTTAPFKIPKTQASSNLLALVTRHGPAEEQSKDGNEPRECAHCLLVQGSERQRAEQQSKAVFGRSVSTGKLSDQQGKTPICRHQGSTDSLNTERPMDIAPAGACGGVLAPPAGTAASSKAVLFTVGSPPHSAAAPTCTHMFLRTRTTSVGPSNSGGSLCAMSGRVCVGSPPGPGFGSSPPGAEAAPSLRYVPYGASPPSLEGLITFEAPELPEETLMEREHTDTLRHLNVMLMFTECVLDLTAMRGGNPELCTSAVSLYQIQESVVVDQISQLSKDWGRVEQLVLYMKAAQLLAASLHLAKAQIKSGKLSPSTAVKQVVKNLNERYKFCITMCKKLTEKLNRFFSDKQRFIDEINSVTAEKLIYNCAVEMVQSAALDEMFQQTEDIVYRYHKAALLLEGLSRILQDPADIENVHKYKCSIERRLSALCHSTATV

[2] = biological target: Protein kinase C delta type (Homo sapiens) (UniProt Q05655); assay: Selectivity interaction (KinomeScan (DiscoverX)) EUB0000607a PRKCD; settings: at 10 µM
[3] = test system: Proto-oncogene tyrosine-protein kinase receptor Ret (Homo sapiens), P07949 [M918T]; assay: (§1) Selectivity interaction (KinomeScan (DiscoverX)) EUB0001049a RET; settings: at 1 µM
Proto-oncogene tyrosine-protein kinase receptor Ret (Homo sapiens), P07949 [M918T], sequence (P07949 whole entry M918T): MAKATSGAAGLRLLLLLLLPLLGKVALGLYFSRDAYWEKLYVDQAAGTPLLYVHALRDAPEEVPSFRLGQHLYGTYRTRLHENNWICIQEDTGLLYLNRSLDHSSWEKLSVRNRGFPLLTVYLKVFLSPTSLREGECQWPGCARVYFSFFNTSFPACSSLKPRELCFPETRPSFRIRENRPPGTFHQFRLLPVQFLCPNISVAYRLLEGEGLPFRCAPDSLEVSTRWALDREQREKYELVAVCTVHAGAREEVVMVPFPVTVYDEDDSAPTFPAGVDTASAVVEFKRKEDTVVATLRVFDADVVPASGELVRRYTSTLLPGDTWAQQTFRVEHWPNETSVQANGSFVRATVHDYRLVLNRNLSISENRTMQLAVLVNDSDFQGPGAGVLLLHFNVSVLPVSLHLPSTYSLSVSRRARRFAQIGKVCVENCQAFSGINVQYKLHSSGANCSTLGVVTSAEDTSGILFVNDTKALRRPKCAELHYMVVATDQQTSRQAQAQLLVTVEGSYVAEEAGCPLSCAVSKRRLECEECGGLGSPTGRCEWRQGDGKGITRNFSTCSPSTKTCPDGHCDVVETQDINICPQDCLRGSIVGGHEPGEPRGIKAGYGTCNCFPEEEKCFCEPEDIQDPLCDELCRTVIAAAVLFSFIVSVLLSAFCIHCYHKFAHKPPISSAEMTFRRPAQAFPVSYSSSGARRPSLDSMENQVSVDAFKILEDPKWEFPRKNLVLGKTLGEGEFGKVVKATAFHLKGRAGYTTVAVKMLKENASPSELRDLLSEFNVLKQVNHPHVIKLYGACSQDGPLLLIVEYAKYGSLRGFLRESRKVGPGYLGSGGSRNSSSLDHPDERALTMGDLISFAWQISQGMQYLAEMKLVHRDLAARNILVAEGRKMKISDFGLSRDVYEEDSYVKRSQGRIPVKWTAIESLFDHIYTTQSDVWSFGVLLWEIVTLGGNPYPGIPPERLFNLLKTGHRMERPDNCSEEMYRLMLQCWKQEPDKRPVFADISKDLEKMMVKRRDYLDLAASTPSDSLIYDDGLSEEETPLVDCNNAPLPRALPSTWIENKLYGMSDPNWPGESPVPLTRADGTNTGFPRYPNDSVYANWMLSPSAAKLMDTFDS

[4] = biological target: Proto-oncogene tyrosine-protein kinase receptor Ret (Homo sapiens, UniProt P07949); assay: as §1; settings: at 1 µM
Proto-oncogene tyrosine-protein kinase receptor Ret, sequence (P07949 whole entry): as the sequence (P07949 whole entry M918T) above, with T918M counted along it

[5] = test system: Proto-oncogene tyrosine-protein kinase receptor Ret (Homo sapiens), P07949 [V804M]; assay: as §1; settings: at 1 µM
Proto-oncogene tyrosine-protein kinase receptor Ret (Homo sapiens), P07949 [V804M], sequence (P07949 whole entry V804M): as the sequence (P07949 whole entry M918T) above, with V804M, T918M counted along it

[6] = test system: Proto-oncogene tyrosine-protein kinase receptor Ret (Homo sapiens), P07949 [V804L]; assay: as §1; settings: at 1 µM
Proto-oncogene tyrosine-protein kinase receptor Ret (Homo sapiens), P07949 [V804L], sequence (P07949 whole entry V804L): as the sequence (P07949 whole entry M918T) above, with V804L, T918M counted along it

[7] = biological target: Serine/threonine-protein kinase N2 (Homo sapiens, UniProt Q16513); assay: Selectivity interaction (Millipore kinase profiler) EUB0000124b PKN2; settings: at 10 µM
Serine/threonine-protein kinase N2, sequence (Q16513 whole entry, looked up): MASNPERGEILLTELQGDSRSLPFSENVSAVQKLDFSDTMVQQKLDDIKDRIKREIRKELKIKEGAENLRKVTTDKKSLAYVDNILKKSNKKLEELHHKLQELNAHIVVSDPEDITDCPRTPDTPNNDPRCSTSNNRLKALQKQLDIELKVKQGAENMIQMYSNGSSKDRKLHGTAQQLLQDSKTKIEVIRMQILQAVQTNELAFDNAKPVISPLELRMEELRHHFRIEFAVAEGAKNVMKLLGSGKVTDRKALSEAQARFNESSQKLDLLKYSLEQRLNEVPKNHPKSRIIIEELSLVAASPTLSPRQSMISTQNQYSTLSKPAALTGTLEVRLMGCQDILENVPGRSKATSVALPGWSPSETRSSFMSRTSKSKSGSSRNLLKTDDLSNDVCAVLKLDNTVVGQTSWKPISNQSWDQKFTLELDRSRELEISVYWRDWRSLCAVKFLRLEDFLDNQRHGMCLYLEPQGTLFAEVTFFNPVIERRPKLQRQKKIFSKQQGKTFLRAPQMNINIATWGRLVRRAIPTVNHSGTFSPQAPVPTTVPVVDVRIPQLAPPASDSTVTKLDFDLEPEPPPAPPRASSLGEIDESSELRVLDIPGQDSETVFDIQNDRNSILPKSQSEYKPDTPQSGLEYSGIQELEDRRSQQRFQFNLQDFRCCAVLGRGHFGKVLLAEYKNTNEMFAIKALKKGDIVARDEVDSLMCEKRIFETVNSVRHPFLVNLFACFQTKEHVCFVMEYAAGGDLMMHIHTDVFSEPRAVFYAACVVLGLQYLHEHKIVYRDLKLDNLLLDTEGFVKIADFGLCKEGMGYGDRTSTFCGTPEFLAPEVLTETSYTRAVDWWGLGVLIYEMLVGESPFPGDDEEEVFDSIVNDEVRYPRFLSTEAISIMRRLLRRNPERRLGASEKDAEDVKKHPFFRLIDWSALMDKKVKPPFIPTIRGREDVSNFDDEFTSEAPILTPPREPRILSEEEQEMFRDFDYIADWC

[8] = biological target: Ribosomal protein S6 kinase alpha-3 (Homo sapiens, UniProt P51812); assay: Selectivity interaction (Kinase panel (KiNativ target engagement assay in Jurkat cells)) EUB0001635a RPS6KA3; assay type: cell-based; settings: Selectivity number of off-targets 0.0, Selectivity number of targets 233.0, Source Knowledge https://www.sciencedirect.com/science/article/pii/S2451945619300674?via%3Dihub, at 1 µM
Ribosomal protein S6 kinase alpha-3, sequence (P51812 whole entry): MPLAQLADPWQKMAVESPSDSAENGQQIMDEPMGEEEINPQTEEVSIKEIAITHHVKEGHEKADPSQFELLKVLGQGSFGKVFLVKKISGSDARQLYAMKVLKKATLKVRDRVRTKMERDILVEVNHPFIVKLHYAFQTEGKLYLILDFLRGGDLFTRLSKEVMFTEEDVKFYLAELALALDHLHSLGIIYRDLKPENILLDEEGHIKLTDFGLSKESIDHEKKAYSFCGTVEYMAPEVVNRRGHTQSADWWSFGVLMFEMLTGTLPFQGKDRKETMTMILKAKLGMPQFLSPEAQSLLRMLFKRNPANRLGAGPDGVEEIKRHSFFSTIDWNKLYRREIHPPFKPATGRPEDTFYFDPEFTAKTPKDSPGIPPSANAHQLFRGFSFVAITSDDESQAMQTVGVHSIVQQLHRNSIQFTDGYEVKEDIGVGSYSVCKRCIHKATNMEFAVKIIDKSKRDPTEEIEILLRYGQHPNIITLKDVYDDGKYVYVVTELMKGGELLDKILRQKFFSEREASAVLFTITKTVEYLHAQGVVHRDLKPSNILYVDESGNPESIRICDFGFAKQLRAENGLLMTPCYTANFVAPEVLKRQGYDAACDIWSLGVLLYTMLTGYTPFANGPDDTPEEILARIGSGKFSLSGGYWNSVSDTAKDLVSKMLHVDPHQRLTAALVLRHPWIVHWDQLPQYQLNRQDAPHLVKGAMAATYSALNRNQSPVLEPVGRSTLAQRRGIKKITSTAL

[9] = biological target: T2, Non-receptor tyrosine-protein kinase TNK1 (Homo sapiens) (UniProt Q13470); assay: Selectivity interaction (KinomeScan (DiscoverX)) EUB0000229b TNK1; settings: at 10 µM
T2 sequence (whole entry): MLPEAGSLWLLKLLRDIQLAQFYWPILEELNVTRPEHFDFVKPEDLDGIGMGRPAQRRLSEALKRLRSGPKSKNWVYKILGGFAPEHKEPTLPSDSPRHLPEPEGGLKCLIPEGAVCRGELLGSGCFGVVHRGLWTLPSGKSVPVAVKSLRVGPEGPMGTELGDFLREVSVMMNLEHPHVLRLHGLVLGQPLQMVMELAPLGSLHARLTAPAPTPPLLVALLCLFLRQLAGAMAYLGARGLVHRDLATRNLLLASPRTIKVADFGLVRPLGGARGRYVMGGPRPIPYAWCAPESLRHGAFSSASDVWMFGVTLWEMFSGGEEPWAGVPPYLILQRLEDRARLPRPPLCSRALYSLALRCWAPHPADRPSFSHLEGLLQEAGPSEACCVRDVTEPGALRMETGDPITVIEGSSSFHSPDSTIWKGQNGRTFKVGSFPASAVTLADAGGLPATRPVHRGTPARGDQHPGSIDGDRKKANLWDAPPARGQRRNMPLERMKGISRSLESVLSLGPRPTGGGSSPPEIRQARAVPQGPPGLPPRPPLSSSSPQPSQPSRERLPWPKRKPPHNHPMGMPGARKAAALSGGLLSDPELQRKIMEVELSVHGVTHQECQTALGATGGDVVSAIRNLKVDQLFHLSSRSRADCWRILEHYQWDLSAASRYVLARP

[10] = biological target: T3, Interleukin-1 receptor-associated kinase 3 (Homo sapiens) (UniProt Q9Y616); assay: Selectivity interaction (KinomeScan (DiscoverX)) EUB0000092b IRAK3; settings: at 10 µM
T3 sequence (whole entry): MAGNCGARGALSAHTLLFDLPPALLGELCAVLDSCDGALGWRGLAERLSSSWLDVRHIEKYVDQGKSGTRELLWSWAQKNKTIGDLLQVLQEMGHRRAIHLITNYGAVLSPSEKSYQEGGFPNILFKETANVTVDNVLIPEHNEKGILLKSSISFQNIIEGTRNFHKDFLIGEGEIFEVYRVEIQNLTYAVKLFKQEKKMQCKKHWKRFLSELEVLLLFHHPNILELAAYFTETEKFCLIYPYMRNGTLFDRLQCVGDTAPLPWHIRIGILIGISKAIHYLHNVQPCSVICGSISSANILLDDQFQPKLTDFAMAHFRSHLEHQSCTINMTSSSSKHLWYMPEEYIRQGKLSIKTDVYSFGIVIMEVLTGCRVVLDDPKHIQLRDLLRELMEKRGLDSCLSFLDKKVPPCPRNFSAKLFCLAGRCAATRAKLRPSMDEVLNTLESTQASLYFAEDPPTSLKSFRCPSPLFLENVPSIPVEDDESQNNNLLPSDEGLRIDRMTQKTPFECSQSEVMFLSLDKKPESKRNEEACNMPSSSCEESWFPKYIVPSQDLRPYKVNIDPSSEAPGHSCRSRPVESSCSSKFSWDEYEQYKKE

[11] = biological target: Tyrosine-protein kinase ABL1 (Homo sapiens, UniProt P00519); settings: at 10 µM
Tyrosine-protein kinase ABL1, sequence (P00519 whole entry): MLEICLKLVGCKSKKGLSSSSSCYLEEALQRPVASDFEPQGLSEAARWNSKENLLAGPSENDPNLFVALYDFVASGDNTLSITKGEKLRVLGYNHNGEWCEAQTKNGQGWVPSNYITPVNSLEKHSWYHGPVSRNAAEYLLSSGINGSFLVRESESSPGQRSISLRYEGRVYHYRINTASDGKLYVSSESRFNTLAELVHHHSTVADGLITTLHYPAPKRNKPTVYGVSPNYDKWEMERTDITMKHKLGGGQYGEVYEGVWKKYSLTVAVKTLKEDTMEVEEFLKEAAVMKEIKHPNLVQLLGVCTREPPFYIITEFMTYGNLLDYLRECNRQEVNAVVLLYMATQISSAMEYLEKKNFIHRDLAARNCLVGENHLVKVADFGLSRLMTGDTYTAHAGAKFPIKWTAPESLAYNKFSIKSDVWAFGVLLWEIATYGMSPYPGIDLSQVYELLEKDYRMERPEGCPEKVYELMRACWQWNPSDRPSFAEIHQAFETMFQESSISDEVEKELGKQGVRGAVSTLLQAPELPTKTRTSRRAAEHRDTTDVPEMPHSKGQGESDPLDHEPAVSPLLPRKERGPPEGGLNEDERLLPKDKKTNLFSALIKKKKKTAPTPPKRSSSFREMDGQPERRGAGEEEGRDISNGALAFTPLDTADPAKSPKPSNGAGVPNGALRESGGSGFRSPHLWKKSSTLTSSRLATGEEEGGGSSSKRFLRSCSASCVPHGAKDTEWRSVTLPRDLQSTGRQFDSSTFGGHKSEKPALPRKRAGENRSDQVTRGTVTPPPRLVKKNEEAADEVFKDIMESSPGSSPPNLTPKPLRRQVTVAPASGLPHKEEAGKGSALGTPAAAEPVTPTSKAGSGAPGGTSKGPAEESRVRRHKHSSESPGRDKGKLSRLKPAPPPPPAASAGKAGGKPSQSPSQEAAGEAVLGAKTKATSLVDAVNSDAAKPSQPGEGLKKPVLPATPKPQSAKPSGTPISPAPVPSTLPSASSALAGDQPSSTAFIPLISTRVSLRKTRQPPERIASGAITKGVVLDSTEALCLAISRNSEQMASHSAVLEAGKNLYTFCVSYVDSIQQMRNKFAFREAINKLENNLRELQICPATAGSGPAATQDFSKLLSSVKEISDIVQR

[12] = biological target: Protein kinase C alpha type (Homo sapiens, UniProt P17252); assay: Selectivity interaction (ActivX KiNativ screen (ex vivo kinase selectivity in human PBMCs)) EUB0001619a PRKCA; assay type: cell-based; settings: PBMC, at 1 µM

% of inhibition [1]: -117%
Compound: Cn1cc(-n2cnc3c(NCc4nc5cc(Cl)c(Cl)cc5[nH]4)nc(N4CCOCC4)nc32)cn1

Compound: CNC(=O)Nc1ccc(-c2nc(N3CC4CCC(C3)O4)c3cnn(C4CCC5(CC4)OCCO5)c3n2)cc1
% of control [2]: 100%

Compound: COc1cc(Nc2nc(C)cc(-c3cnn4nc(OC)ccc34)n2)cc(C(F)(F)F)c1
% of control [3]: 98%
% of control [4]: 100%
% of control [5]: 78%
% of control [6]: 95%

% of control [7]: 98%
Compound: CC(=O)Nc1cccc(-n2c(=O)n(C3CC3)c(=O)c3c(Nc4ccc(I)cc4F)n(C)c(=O)c(C)c32)c1

Compound: C=CC(=O)Nc1ccc(C(=O)Nc2[nH]nc3c2CN(C(=O)N[C@H](CN(C)C)c2ccccc2)C3(C)C)cc1
% of engagement [8]: -18.2%

Compound: COc1cc(N(C)c2ccnc3ccc(C(F)(F)F)cc23)cc(OC)c1OC
% binding [9]: 63%

Compound: CCC(=O)N1CCN(c2ccc(-n3c(=O)ccc4cnc5ccc(-c6cnc7ccccc7c6)cc5c43)cc2C(F)(F)F)CC1
% of control [10]: 27%

Compound: Cc1cc([C@@H](C)Nc2ccccc2C(=O)O)c2nc(N3CCOCC3)cc(=O)n2c1 [AZD-6482]
% of control [11]: 88%

Compound: N#Cc1cccc(-c2c[nH]c3ncnc(N4CCOCC4)c23)c1
% of inhibition [12]: 57%
